Legend:
[1] = test system: H4b receptor variant; conditions: 1 μM in PBS, 37° C., 30 min, transfected COS-7 cells, H4b variant cDNA, compared with H4a-transfected cells
Experimental: (§1) The full length wild type […]) and the isoforms H4b and […] were cloned in pCDNA3.1 […] Tag eukaryotic expression vector for expression in COS-7 cells. The COS-7 cells grown in culture chambers were transfected with 2 μg of plasmid DNA containing either one of the H4 isoforms or the wild type H4 with superfect (Qiagen) transfection reagent. Binding of Histamine to receptor or receptor variants was determined by BODIPY-L-Histamine or Fluorescein Histamine (Molecular Probes, Eugene Oreg.). Briefly, the transfected cells were washed with PBS and 1 μM concentration of BODIPY-L-Histamine or Fluorescein Histamine in PBS was added to the cells and incubated at 37° C. for 30-min. Unbound fluorescent labelled histamine was washed in cold PBS and the slides were examined immediately under a fluorescent microscope.

[2] = test system: H4c receptor variant; conditions: 1 μM in PBS, 37° C., 30 min, transfected COS-7 cells, H4c variant cDNA, compared with H4a-transfected cells
Experimental: as §1

Substance	Binding of fluorescent labelled histamine (fluorescence under microscope) versus H4 wildtype (H4a) [1]	Binding of fluorescent labelled histamine (fluorescence under microscope) versus H4 wildtype (H4a) [2]
Fluorescein Histamine	qualitatively comparable fluorescence	qualitatively comparable fluorescence
BODIPY-L-Histamine	qualitatively comparable fluorescence	qualitatively comparable fluorescence
